In brackets after ≈: the same amount, converted by molar mass. Where two headings read alike, the source gives them in different places.
Legend:
[1] = tested on: Mycobacterium intracellulare; test: MIC, micro broth dilution with resazurin readout; type: cell-based; details: MH Culture Medium, read-out: Minimum Inhibitory Concentration (MIC)
Mycobacterium fortuitum = test: MIC, micro broth dilution with resazurin readout; type: cell-based; details: Mycolicibacterium fortuitum, MH Culture Medium, read-out: Minimum Inhibitory Concentration (MIC)
Mycobacterium kansasii [2] = test: MBC, plating of MIC wells and CFU count; type: cell-based; details: read-out: Minimum Bactericidal Concentration (MBC)
[3] = tested on: Mycobacterium massiliense; test: MIC, micro broth dilution with resazurin readout; type: cell-based; details: Mycobacteroides abscessus, MH Culture Medium, read-out: Minimum Inhibitory Concentration (MIC)
Mycobacterium abscessus [4] = test: MBC, plating of MIC wells and CFU count; type: cell-based; details: Mycobacteroides abscessus, read-out: Minimum Bactericidal Concentration (MBC)
Mycobacterium kansasii [5] = test: MIC, micro broth dilution with resazurin readout; type: cell-based; details: read-out: Minimum Inhibitory Concentration (MIC)
Mycobacterium abscessus [6] = test: MIC, micro broth dilution with resazurin readout; type: cell-based; details: Mycobacteroides abscessus, read-out: Minimum Inhibitory Concentration (MIC)
Mycodacterium chelonei = test: MIC, micro broth dilution with resazurin readout; type: cell-based; details: MH Culture Medium; Chelonei (standard strain); read-out: Minimum Inhibitory Concentration (MIC)
Mycobacterium avium [7] = test: MBC, plating of MIC wells and CFU count; type: cell-based; details: read-out: Minimum Bactericidal Concentration (MBC)
Mycobacterium avium [8] = test: MIC, micro broth dilution with resazurin readout; type: cell-based; details: read-out: Minimum Inhibitory Concentration (MIC)
NTM = test: In-vitro activity against NTM, overall conclusion; type: cell-based, nontuberculous mycobacteria; details: overall conclusion from Tables 1-3
Experimental: In this embodiment, an inhibitory test is performed on pathogenic bacteria, i.e. Mycobacterium avium, Mycobacterium abscessus and Mycobacterium kansasii belonging to the nontuberculous mycobacteria using the rifamycin-nitroimidazole coupling molecule of the present invention and positive controls, and then Minimum Inhibitory Concentration (MIC) and Minimum Bactericidal Concentration (MBC) are obtained. Clarithromycin, moxifloxacin, amikacin, rifampicin, rifabutin, ciprofloxacin and metronidazole are used as positive controls. The test strains are provided by KnowBio company, and the Chinese clinically isolated strains are derived from Shanghai Pulmonary Hospital.
The inhibitory test of this embodiment is performed by the micro broth dilution method using two different culture mediums: (1) MH (Mueller-Hinton) micro broth dilution method: using MH culture medium (or culture solution), wherein the concentration of calcium and magnesium ions in MH broth (cation-adjusted) is consistent with that in the Guideline of the Clinical and Laboratory Standards Institute (CLSI; M7-A7); and (2) 7H9 micro broth dilution method: using 7H9 culture medium (or culture solution, provided by Sigma-Aldrich).

[9] = Intracellulare (standard strain)
[10] = clinically isolated strain Intracellulare (S90)
[11] = clinically isolated strain Intracellulare (S261)
[12] = clinically isolated strain Intracellulare (S269)
[13] = clinically isolated strain Intracellulare (S290)
[14] = clinically isolated strain Intracellulare (S291)
[15] = clinically isolated strain Intracellulare (S298)
[16] = clinically isolated strain Intracellulare (S442)
[17] = clinically isolated strain Intracellulare (S541)
[18] = clinically isolated strain Intracellulare (S623)
[19] = clinically isolated strain Intracellulare (ZPS)
[20] = clinically isolated strain Fortuitum (S103)
[21] = clinically isolated strain Fortuitum (S111)
[22] = clinically isolated strain Massiliense (D10)
[23] = clinically isolated strain Massiliense (D14)
[24] = clinically isolated strain Massiliense (D18)
[25] = MH Culture Medium, Kansasii (standard strain)
[26] = MH Culture Medium, clinically isolated strain Kansasii (S9)
[27] = MH Culture Medium, clinically isolated strain Kansasii (S199)
[28] = MH Culture Medium, clinically isolated strain Kansasii (S520)
[29] = MH Culture Medium, clinically isolated strain Kansasii (S609)
[30] = 7H9 Broth, Mycobacterium avium Rough
[31] = 7H9 Broth, Mycobacterium avium Smooth
[32] = MH Broth, Mycobacterium avium Rough
[33] = MH Broth, Mycobacterium avium Smooth
[34] = MH Culture Medium, Avium (standard strain)
[35] = MH Culture Medium, clinically isolated strain Avium (S31)
[36] = MH Culture Medium, clinically isolated strain Avium (S123)
[37] = MH Culture Medium, clinically isolated strain Avium (S559)
[38] = MH Culture Medium, clinically isolated strain Avium (S568)
[39] = MH Culture Medium, clinically isolated strain Avium (S577)
[40] = MH Culture Medium, clinically isolated strain Avium (S597)
[41] = MH Culture Medium, clinically isolated strain Avium (S602)

CO[C@H]1/C=C/O[C@@]2(C)Oc3c(C)c(O)c4c(c3C2=O)C2=NC3(CCN(CCn5c([N+](=O)[O-])cnc5C)CC3)NC2=C(NC(=O)/C(C)=C\C=C\[C@H](C)[C@H](O)[C@@H](C)[C@@H](O)[C@@H](C)[C@H](OC(C)=O)[C@@H]1C)C4=O [Compound I]
MIC [1, 9]: 0.0625 µg/mL (≈ 0.0662 µM)
MIC [1, 10]: 0.25 µg/mL (≈ 0.265 µM)
MIC [1, 11]: 0.25 µg/mL (≈ 0.265 µM)
MIC [1, 12]: 0.125 µg/mL (≈ 0.132 µM)
MIC [1, 13]: 0.25 µg/mL (≈ 0.265 µM)
MIC [1, 14]: 0.125 µg/mL (≈ 0.132 µM)
MIC [1, 15]: 0.25 µg/mL (≈ 0.265 µM)
MIC [1, 16]: 0.0625 µg/mL (≈ 0.0662 µM)
MIC [1, 17]: 0.125 µg/mL (≈ 0.132 µM)
MIC [1, 18]: 0.25 µg/mL (≈ 0.265 µM)
MIC [1, 19]: 0.0625 µg/mL (≈ 0.0662 µM)
MIC (Mycobacterium fortuitum; Fortuitum (standard strain)): 16 µg/mL (≈ 16.9 µM)
MIC (Mycobacterium fortuitum; [20]): > 64 µg/mL
MIC (Mycobacterium fortuitum; [21]): 4 µg/mL (≈ 4.24 µM)
MBC (Mycobacterium kansasii [2]; 7H9 Broth): 8 µg/mL (≈ 8.47 µM)
MBC (Mycobacterium kansasii [2]; MH Broth): 2 µg/mL (≈ 2.12 µM)
MIC [3, 22]: 64 µg/mL (≈ 67.8 µM)
MIC [3, 23]: 64 µg/mL (≈ 67.8 µM)
MIC [3, 24]: 64 µg/mL (≈ 67.8 µM)
MBC (Mycobacterium abscessus [4]; 7H9 Broth): 1 µg/mL (≈ 1.06 µM)
MBC (Mycobacterium abscessus [4]; MH Broth): 16 µg/mL (≈ 16.9 µM)
MIC (Mycobacterium kansasii [5]; 7H9 Broth): 2 µg/mL (≈ 2.12 µM)
MIC (Mycobacterium kansasii [5]; MH Broth): 2 µg/mL (≈ 2.12 µM)
MIC (Mycobacterium kansasii [5]; [25]): 0.0625 µg/mL (≈ 0.0662 µM)
MIC (Mycobacterium kansasii [5]; [26]): 0.0625 µg/mL (≈ 0.0662 µM)
MIC (Mycobacterium kansasii [5]; [27]): 0.0625 µg/mL (≈ 0.0662 µM)
MIC (Mycobacterium kansasii [5]; [28]): 0.0625 µg/mL (≈ 0.0662 µM)
MIC (Mycobacterium kansasii [5]; [29]): 0.0625 µg/mL (≈ 0.0662 µM)
MIC (Mycobacterium abscessus [6]; 7H9 Broth): 1 µg/mL (≈ 1.06 µM)
MIC (Mycobacterium abscessus [6]; MH Broth): 1 µg/mL (≈ 1.06 µM)
MIC (Mycodacterium chelonei): 32 µg/mL (≈ 33.9 µM)
MBC (Mycobacterium avium [7]; [30]): 4 µg/mL (≈ 4.24 µM)
MBC (Mycobacterium avium [7]; [31]): 16 µg/mL (≈ 16.9 µM)
MBC (Mycobacterium avium [7]; [32]): 4 µg/mL (≈ 4.24 µM)
MBC (Mycobacterium avium [7]; [33]): 16 µg/mL (≈ 16.9 µM)
MIC (Mycobacterium avium [8]; [30]): 4 µg/mL (≈ 4.24 µM)
MIC (Mycobacterium avium [8]; [31]): 4 µg/mL (≈ 4.24 µM)
MIC (Mycobacterium avium [8]; [32]): 4 µg/mL (≈ 4.24 µM)
MIC (Mycobacterium avium [8]; [33]): 4 µg/mL (≈ 4.24 µM)
MIC (Mycobacterium avium [8]; [34]): 0.0625 µg/mL (≈ 0.0662 µM)
MIC (Mycobacterium avium [8]; [35]): 0.0625 µg/mL (≈ 0.0662 µM)
MIC (Mycobacterium avium [8]; [36]): 0.0625 µg/mL (≈ 0.0662 µM)
MIC (Mycobacterium avium [8]; [37]): 0.0625 µg/mL (≈ 0.0662 µM)
MIC (Mycobacterium avium [8]; [38]): 0.25 µg/mL (≈ 0.265 µM)
MIC (Mycobacterium avium [8]; [39]): 0.0625 µg/mL (≈ 0.0662 µM)
MIC (Mycobacterium avium [8]; [40]): 0.125 µg/mL (≈ 0.132 µM)
MIC (Mycobacterium avium [8]; [41]): 0.0625 µg/mL (≈ 0.0662 µM)
in-vitro activity against NTM (NTM): effective and broad in-vitro activity against NTM

CO[C@H]1/C=C/O[C@@]2(C)Oc3c(C)c(O)c4c(O)c(c(/C=N/N5CCN(C)CC5)c(O)c4c3C2=O)NC(=O)/C(C)=C\C=C\[C@H](C)[C@H](O)[C@@H](C)[C@@H](O)[C@@H](C)[C@H](OC(C)=O)[C@@H]1C [Rifampicin]
MIC [1, 9]: 0.25 µg/mL (≈ 0.304 µM)
MIC [1, 10]: 8 µg/mL (≈ 9.72 µM)
MIC [1, 11]: 16 µg/mL (≈ 19.4 µM)
MIC [1, 12]: 4 µg/mL (≈ 4.86 µM)
MIC [1, 13]: 4 µg/mL (≈ 4.86 µM)
MIC [1, 14]: 4 µg/mL (≈ 4.86 µM)
MIC [1, 15]: 4 µg/mL (≈ 4.86 µM)
MIC [1, 16]: 2 µg/mL (≈ 2.43 µM)
MIC [1, 17]: 16 µg/mL (≈ 19.4 µM)
MIC [1, 18]: 8 µg/mL (≈ 9.72 µM)
MIC [1, 19]: 2 µg/mL (≈ 2.43 µM)
MIC (Mycobacterium fortuitum; Fortuitum (standard strain)): > 64 µg/mL
MIC (Mycobacterium fortuitum; [20]): > 64 µg/mL
MIC (Mycobacterium fortuitum; [21]): 64 µg/mL (≈ 77.8 µM)
MBC (Mycobacterium kansasii [2]; 7H9 Broth): 4 µg/mL (≈ 4.86 µM)
MBC (Mycobacterium kansasii [2]; MH Broth): 4 µg/mL (≈ 4.86 µM)
MIC [3, 22]: > 64 µg/mL
MIC [3, 23]: > 64 µg/mL
MIC [3, 24]: > 64 µg/mL
MBC (Mycobacterium abscessus [4]; 7H9 Broth): > 64 µg/mL
MBC (Mycobacterium abscessus [4]; MH Broth): > 64 µg/mL
MIC (Mycobacterium kansasii [5]; 7H9 Broth): 16 µg/mL (≈ 19.4 µM)
MIC (Mycobacterium kansasii [5]; MH Broth): 16 µg/mL (≈ 19.4 µM)
MIC (Mycobacterium kansasii [5]; [25]): 0.125 µg/mL (≈ 0.152 µM)
MIC (Mycobacterium kansasii [5]; [26]): 0.125 µg/mL (≈ 0.152 µM)
MIC (Mycobacterium kansasii [5]; [27]): 0.0625 µg/mL (≈ 0.0759 µM)
MIC (Mycobacterium kansasii [5]; [28]): 0.0625 µg/mL (≈ 0.0759 µM)
MIC (Mycobacterium kansasii [5]; [29]): 0.0625 µg/mL (≈ 0.0759 µM)
MIC (Mycobacterium abscessus [6]; 7H9 Broth): > 64 µg/mL
MIC (Mycobacterium abscessus [6]; MH Broth): > 64 µg/mL
MIC (Mycodacterium chelonei): > 64 µg/mL
MBC (Mycobacterium avium [7]; [30]): > 64 µg/mL
MBC (Mycobacterium avium [7]; [31]): 4 µg/mL (≈ 4.86 µM)
MBC (Mycobacterium avium [7]; [33]): 4 µg/mL (≈ 4.86 µM)
MIC (Mycobacterium avium [8]; [30]): 8 µg/mL (≈ 9.72 µM)
MIC (Mycobacterium avium [8]; [31]): 0.5 µg/mL (≈ 0.608 µM)
MIC (Mycobacterium avium [8]; [32]): 8 µg/mL (≈ 9.72 µM)
MIC (Mycobacterium avium [8]; [33]): 1 µg/mL (≈ 1.22 µM)
MIC (Mycobacterium avium [8]; [34]): 0.25 µg/mL (≈ 0.304 µM)
MIC (Mycobacterium avium [8]; [35]): 0.0625 µg/mL (≈ 0.0759 µM)
MIC (Mycobacterium avium [8]; [36]): 8 µg/mL (≈ 9.72 µM)
MIC (Mycobacterium avium [8]; [37]): 0.125 µg/mL (≈ 0.152 µM)
MIC (Mycobacterium avium [8]; [38]): 4 µg/mL (≈ 4.86 µM)
MIC (Mycobacterium avium [8]; [39]): 0.125 µg/mL (≈ 0.152 µM)
MIC (Mycobacterium avium [8]; [40]): 8 µg/mL (≈ 9.72 µM)
MIC (Mycobacterium avium [8]; [41]): 2 µg/mL (≈ 2.43 µM)

Source: US20200360352A1, “USE OF RIFAMYCIN-NITROIMIDAZOLE COUPLING MOLECULE” (priority 2019, published 2020)
